Assay [1] has as its target AAC(3)-Ia (Acinetobacter baumannii, UniProt D7R512). The experiment in a line: Isothermal titration calorimetry. In kind it is binding. How it is done: (§1) To accurately measure protein ligand interactions, the concentration of our proteins of interest was measured spectrophotometrically using the NanoDrop OneC Spectrometer (Thermo Scientific). ITC experiments were performed on a MicroCal iTC 200 (General Electric) at 25 °C with stirring at 750 rpm. Unique buffer solutions were used for each enzyme. AAC(3)-Ia was prepared in 50 mM HEPES, pH 7, and 150 mM NaCl. AAC(3)-IIIa was prepared in 120 mM Tris, pH 7.5, and 150 mM NaCl. AAC(3)-XIa was prepared in 20 mM Tris, pH 7.5, and 150 mM NaCl. The cell contained 550 μM AAC(3)-Ia, 350 μM AAC(3)-IIIa, or 450 μM AAC(3)-XIa. All experiments also contained 5000 μM of coenzyme A trilithium salt in the cell. […] In all ITC experiments, aminoglycosides were prepared in the same buffering solution as the target protein. The ligands were injected 29 times ([…] per injection) with a 180 s interval between injections. Results were analyzed using ORIGIN software version 7E (MicroCal) using the molecular weight of a single protomer of each protein and fitted with a two-set of sites binding model (Supplementary Fig. 5). Data analysis was performed in Microsoft Excel and GraphPad5 software. One-way ANOVA and Tukey’s multiple comparison tests were used to determine the statistical significance of binding affinities.

The target of assay [2] is AAC(3)-XIa (Corynebacterium striatum, UniProt A0ABX7DED9). The experiment in a line: Isothermal titration calorimetry. The assay is classed as binding. Conditions: 25 °C, with coenzyme A, n = 3. How it is done: as §1
A general note: Isothermal titration calorimetry measures the heat released or taken up as one component is titrated into another.

The mark [3] stands for this setting: AAC(3)-Ia, first set of sites, 25 °C, with coenzyme A, n = 3.
[4] abbreviates: AAC(3)-Ia, second set of sites, 25 °C, with coenzyme A, n = 3.
Where [5] appears, read: AAC(3)-XIa, second set of sites.

Several values for one entry are separate records, joined by “and”; a condition that tells them apart may be missing. Equal entries are not always repeated.

By Kd is commonly meant the constant that tells how readily two partners part at equilibrium. Turning to `CN[C@@H]1[C@@H](O)[C@@H](O[C@@H]2[C@@H](O)[C@H](O[C@H]3OC(CN)=CC[C@H]3N)[C@@H](N)C[C@H]2N)OC[C@]1(C)O` [Sisomicin, sisomicin], the TΔS is 3.3 ± 0.427 kcal/mol in assay [1] (setting [3]) and -4.51 ± 0.378 kcal/mol in assay [2] (AAC(3)-XIa, first set of sites). Further, the ΔG was -6.25 ± 0.596 kcal/mol in assay [1] (setting [3]) and -8.12 ± 0.53 kcal/mol in assay [2] (AAC(3)-XIa, first set of sites). The ΔH in assay [1] (setting [3]) was -2.95 ± 0.416 kcal/mol; in assay [2] (AAC(3)-XIa, first set of sites), −12,600 ± 372 cal/mol. Besides, the “N (sites)” value in assay [1] (AAC(3)-Ia, first set of sites, two-set of sites model, 25 °C, with coenzyme A, n = 3) came to 0.50 ± 0.06 sites; in assay [2] (AAC(3)-XIa, first set of sites, two-set of sites model), 0.51 ± 0.01 sites. Moreover, the “N2 (sites)” value in assay [1] (setting [4]) is on record as 0.54 ± 0.01 sites; in assay [2] (setting [5]), 0.36 ± 0.04 sites. Besides, the “TΔS 2” value turned out to be 3.45 ± 0.795 kcal/mol in assay [1] (setting [4]) and 7.295 ± 1.615 kcal/mol in assay [2] (setting [5]). Besides, the “ΔG 2” value is -5.66 ± 1.1 kcal/mol in assay [1] (setting [4]) and -6.237 ± 2.237 kcal/mol in assay [2] (setting [5]). Also, the “ΔH 2” value is -2.21 ± 0.763 kcal/mol in assay [1] (setting [4]) and 1.058 ± 1.548 kcal/mol in assay [2] (setting [5]). Also, the Kd in assay [1] (Kd2, AAC(3)-Ia, second set of sites, 25 °C, with coenzyme A, n = 3) was 71.8 ± 7.5 µM; in assay [1] (Kd, AAC(3)-Ia, first set of sites, two-set of sites model, 25 °C, with coenzyme A, n = 3), 26 ± 0.6 µM; in assay [1] (Kd, AAC(3)-Ia, individual replicates, raw data behind Fig. 6) it was 26.2 µM and 24.9 µM and 27 µM; in assay [2] (Kd2, AAC(3)-XIa, second set of sites) it was 27.1 ± 4.2 µM; in assay [2] (Kd, AAC(3)-XIa, first set of sites, two-set of sites model), 1.1 ± 0.02 µM.

The values above are taken from PMC12378234, “Enzyme-mediated aminoglycoside resistance without target mimicry” (Communications Chemistry, 2025).
